One data set concerns the target NR1A/2A NMDA receptor (Rattus norvegicus, UniProt P35439+Q00959). The data set can be described thus: Xenopus oocyte expression system, two-electrode voltage clamp, NR1A/2A. Format: cell-based. An excerpt:
(§1) Electrophysiological assays may be utilized to characterize the actions of potential subtype-selective ligands at NMDA receptors expressed in Xenopus oocytes. The ligand may be assayed at the different subunit combinations of cloned rat NMDA receptors corresponding to the four putative NMDA receptor subtypes (Moriyoshi et al., Nature (Lond.) 354:31-37 (1991); Monyer et al., Science (Washington, D.C.) 256:1217-1221 (1992); Kutsuwada et al., Nature (Lond.) 358:36-41 (1992); Sugihara et al., Biochem. Biophys. Res. Comm. 185:826-832 (1992)).
(§2) Using fixed saturating concentrations of agonists (glutamate 100 μM, glycine 1-10 μM depending on subunit combination), the inhibitory potency of a putative subtype-selective ligand may be assayed at the NMDA receptors assembled from NR1A/2A, NR1A/2B, NR1A/2C and NR1A/2D subunit combinations.
(§3) The Xenopus oocyte expression system. Mature female Xenopus laevis were anaesthetized (20-40 min) using 0.15% 3-aminobenzoic acid ethyl ester (MS-222) and 2-4 ovarian lobes were surgically removed. Oocytes at developmental stages IV-VI (Dumont, J. N., J. Morphol. 136:153-180 (1972)), were dissected from the ovary still surrounded by enveloping ovarian tissues. Follicle-enclosed oocytes were micro-injected with 1:1 mixtures of cRNA:NR1A+NR2A, 2B, 2C or 2D; injecting ˜2, 5, or 20 ng of RNA encoding each receptor subunit. NR1A encoding cRNA was injected alone at ˜20 ng. Oocytes were stored in Barth's medium containing (in mM): NaCl, 88; KCl, 1; CaCl2, 0.41; Ca(NO3)2, 0.33; MgSO4, 0.82; NaHCO3, 2.4; HEPES 5; pH 7.4, with 0.1 mg/mL gentamycin sulphate. While oocytes were still surrounded by enveloping ovarian tissues the Barth's medium was supplemented with 0.1% bovine serum. Oocytes were defolliculated 1-2 days following injections by treatment with collagenase (0.5 mg/mL Sigma Type I for 0.5-1 hr) (Miledi and Woodward, J. Physiol. (Lond.) 416:601-621 (1989)) and subsequently stored in serum-free medium.
(§4) Electrical recordings were made using a conventional two-electrode voltage clamp (Dagan TEV-200) over periods ranging between 3-21 days following injection. Oocytes were placed in a 0.1 mL recording chamber continuously perfused (5-15 mL min^−1) with frog Ringer's solution containing (in mM): NaCl, 115; KCl, 2; CaCl2, 1.8; HEPES, 5; pH 7.4. Drugs were applied by bath perfusion. When using the more rapid flow rates, half-times for mid-chamber solution changes were between 2-3 sec, however, exchange rates for drug solutions at the oocyte surface (i.e. beneath the vitelline envelope and among the tangles of microvilli) were probably considerably longer (Woodward et al., Mol. Pharmacol. 41:89-103 (1992)). Zero-Ca^2+/Ba^2+ Ringer had the composition (in mM): NaCl, 115; KCl, 2; BaCl2, 1.8; HEPES, 5; pH 7.4. Intraoocyte injections were made by pneumatic pressure-pulse ejection from micropipettes (Miledi and Parker, J. Physiol. (Lond.) 357:173-183 (1984)). Injection solutions of EGTA (40-400 mM) and BAPTA (50-500 mM) were made up in H2O, pH adjusted to 7.4 with KOH or HCl, and filtered to minimize plugging (Acrodisc-13, […]). Pressure was set between 200-400 kPa. The volume of injections was regulated by adjusting the time of pulses (0.1-1 sec) and was estimated by measuring the diameters of ejected droplets.
(§5) Concentration-inhibition curves were fit with equation 2.
(§6) I/Icontrol=1/(1+([antagonist]/10^−pIC50)^n) Eq. 2
(§7) in which Icontrol is the current evoked by agonists alone, pIC50=−log IC50, […] is the concentration of antagonist that produces half maximal inhibition, and n is the slope factor. For incomplete curves analysis by fitting was unreliable and IC50 values were calculated by simple regression over linear portions of the curves (Origin: Microcal Software).
(§8) Drugs were initially dissolved at concentrations of 10-100 mM in DMSO. Dilutions were then made to generate a series of DMSO stock solutions over the range 10 μM to 100 mM. Working solutions were made by 1000-3000 fold dilution of stocks into Ringer. […]
In general terms: Two-electrode voltage clamp is typically applied to oocytes expressing channels or transporters.

The next data set concerns the target NR1A/2B NMDA receptor (Rattus norvegicus, UniProt P35439+Q00960). The data set is described as follows: Xenopus oocyte expression system, two-electrode voltage clamp, NR1A/2B. Format: cell-based.
Excerpt: as §1, §2, §3, §4, §5, §6, §7, §8

Another data set addresses NR1A/2C NMDA receptor (Rattus norvegicus, UniProt P35439+Q00961). The data set is described as follows: Xenopus oocyte expression system, two-electrode voltage clamp, NR1A/2C. The data set is classed as cell-based.
Excerpt: as §1, §2, §3, §4, §5, §6, §7, §8

The test system of data set [1] is Maximal Electroshock-induced Seizures. The data set is described as follows: Maximal electroshock-induced seizures. The data set is classed as in vivo, mice. As to conditions: Mus musculus, read-out: Mes. ED50. Here is the method: Maximal Electroshock-induced Seizures. Seizures were induced by application of current (50 mA, 60 pulses/sec, 0.8 sec pulse width, 1 sec duration, d.c.) through saline-coated corneal electrodes using a Ugo Basile ECT device (Model 7801). […] A tonic seizure was defined as a hindlimb extension in excess of 90 degrees from the plane of the body. Results were treated in a quantal manner.
Background: Protection in the maximal electroshock model is a classic sign of anticonvulsant action.

[2] abbreviates: cloned NR1A/2A subunits expressed in Xenopus oocytes, inhibition of agonist-evoked membrane current, read-out: 1A/2A IC50.
[3] abbreviates: cloned NR1A/2B subunits expressed in Xenopus oocytes, inhibition of agonist-evoked membrane current, read-out: 1A/2B IC50.
[4] abbreviates: cloned NR1A/2C subunits expressed in Xenopus oocytes, inhibition of agonist-evoked membrane current, read-out: 1A/2C IC50.
The mark [5] stands for this setting: mice, tonic hindlimb extensor response after corneal current 50 mA.

Each structure is given as a SMILES string. Counter-ions that a name gives are not always drawn. Like-named read-outs stand apart in the source and are kept apart here.

As usually defined, the ED50 is the midpoint of the dose-response relation. One may read the melting point as the temperature, or range, at which the solid turns liquid.

Sequence of NR1A/2A NMDA receptor (Q00959 20-1464 limits assumed, other chains not shown): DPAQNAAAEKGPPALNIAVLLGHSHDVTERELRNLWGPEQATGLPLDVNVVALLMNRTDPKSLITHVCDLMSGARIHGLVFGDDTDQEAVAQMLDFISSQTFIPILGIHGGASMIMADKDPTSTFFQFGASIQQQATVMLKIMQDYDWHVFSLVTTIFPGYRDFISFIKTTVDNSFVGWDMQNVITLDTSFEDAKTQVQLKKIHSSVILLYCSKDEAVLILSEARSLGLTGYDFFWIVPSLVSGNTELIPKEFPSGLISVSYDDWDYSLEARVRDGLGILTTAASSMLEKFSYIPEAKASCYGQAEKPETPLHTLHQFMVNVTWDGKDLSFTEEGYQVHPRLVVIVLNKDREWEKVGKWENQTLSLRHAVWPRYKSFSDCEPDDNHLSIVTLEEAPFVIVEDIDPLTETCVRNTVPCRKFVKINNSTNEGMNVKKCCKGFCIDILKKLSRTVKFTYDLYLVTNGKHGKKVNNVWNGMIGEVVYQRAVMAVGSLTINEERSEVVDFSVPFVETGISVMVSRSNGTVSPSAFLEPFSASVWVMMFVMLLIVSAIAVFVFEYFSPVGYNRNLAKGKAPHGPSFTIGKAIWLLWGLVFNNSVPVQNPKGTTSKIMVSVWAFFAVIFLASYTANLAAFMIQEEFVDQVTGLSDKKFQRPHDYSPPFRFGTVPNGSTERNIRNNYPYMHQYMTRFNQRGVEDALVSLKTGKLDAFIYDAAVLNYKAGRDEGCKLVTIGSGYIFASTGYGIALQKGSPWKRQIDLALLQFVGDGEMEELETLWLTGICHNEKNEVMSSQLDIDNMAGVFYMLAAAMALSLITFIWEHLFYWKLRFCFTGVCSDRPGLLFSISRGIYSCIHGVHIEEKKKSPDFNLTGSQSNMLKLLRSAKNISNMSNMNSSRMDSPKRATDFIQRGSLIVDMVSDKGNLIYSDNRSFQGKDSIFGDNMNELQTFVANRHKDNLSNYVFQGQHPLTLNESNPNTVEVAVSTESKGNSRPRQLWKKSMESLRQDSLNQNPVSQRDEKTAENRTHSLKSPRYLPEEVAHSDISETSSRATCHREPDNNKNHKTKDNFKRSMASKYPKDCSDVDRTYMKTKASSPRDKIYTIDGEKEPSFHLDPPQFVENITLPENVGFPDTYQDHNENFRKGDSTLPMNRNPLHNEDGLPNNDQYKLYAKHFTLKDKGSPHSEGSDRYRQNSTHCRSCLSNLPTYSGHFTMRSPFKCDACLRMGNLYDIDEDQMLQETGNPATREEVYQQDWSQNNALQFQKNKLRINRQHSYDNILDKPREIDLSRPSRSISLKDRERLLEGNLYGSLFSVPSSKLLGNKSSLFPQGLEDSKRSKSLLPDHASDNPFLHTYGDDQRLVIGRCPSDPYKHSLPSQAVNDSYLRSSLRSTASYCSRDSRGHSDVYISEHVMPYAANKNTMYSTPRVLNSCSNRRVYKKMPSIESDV
Sequence of NR1A/2B NMDA receptor (Q00960 27-1482, other chains not shown): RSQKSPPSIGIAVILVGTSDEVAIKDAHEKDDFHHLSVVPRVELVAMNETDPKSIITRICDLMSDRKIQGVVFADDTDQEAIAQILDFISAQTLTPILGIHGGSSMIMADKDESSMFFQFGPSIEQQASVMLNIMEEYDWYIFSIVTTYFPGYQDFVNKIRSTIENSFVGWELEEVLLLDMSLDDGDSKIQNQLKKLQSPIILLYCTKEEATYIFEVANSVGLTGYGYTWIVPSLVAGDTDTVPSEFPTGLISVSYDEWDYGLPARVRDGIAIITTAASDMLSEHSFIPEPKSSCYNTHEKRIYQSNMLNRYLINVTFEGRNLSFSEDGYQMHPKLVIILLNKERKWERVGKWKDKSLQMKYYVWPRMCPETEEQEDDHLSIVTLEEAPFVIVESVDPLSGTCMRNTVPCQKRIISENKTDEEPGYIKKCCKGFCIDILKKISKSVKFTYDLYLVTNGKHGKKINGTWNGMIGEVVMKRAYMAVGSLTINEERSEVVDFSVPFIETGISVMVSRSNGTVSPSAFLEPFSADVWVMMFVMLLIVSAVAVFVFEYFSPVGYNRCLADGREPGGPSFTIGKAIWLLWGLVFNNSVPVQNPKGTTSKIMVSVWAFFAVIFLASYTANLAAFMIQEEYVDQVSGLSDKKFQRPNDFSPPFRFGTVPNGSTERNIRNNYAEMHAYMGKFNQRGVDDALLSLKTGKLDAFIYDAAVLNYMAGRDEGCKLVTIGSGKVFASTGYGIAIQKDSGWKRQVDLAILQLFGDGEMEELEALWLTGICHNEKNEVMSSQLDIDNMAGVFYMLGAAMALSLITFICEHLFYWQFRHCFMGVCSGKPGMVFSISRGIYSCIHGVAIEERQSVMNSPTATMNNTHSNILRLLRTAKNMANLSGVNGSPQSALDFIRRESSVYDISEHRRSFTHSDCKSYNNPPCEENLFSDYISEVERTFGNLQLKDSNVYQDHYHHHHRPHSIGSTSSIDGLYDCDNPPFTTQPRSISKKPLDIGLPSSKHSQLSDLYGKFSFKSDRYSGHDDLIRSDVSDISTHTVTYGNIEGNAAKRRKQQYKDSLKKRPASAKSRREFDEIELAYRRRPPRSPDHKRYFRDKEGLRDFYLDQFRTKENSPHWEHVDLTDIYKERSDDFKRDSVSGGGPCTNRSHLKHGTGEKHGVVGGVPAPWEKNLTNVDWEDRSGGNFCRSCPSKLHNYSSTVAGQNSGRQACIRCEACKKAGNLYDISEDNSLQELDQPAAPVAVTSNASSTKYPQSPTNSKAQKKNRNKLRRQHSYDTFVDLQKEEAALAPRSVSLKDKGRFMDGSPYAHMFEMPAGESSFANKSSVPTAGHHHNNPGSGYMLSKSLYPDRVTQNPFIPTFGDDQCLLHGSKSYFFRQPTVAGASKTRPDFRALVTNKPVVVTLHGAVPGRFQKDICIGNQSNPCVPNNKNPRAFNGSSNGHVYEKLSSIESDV
Sequence of NR1A/2C NMDA receptor (Q00961 20-1237, other chains not shown): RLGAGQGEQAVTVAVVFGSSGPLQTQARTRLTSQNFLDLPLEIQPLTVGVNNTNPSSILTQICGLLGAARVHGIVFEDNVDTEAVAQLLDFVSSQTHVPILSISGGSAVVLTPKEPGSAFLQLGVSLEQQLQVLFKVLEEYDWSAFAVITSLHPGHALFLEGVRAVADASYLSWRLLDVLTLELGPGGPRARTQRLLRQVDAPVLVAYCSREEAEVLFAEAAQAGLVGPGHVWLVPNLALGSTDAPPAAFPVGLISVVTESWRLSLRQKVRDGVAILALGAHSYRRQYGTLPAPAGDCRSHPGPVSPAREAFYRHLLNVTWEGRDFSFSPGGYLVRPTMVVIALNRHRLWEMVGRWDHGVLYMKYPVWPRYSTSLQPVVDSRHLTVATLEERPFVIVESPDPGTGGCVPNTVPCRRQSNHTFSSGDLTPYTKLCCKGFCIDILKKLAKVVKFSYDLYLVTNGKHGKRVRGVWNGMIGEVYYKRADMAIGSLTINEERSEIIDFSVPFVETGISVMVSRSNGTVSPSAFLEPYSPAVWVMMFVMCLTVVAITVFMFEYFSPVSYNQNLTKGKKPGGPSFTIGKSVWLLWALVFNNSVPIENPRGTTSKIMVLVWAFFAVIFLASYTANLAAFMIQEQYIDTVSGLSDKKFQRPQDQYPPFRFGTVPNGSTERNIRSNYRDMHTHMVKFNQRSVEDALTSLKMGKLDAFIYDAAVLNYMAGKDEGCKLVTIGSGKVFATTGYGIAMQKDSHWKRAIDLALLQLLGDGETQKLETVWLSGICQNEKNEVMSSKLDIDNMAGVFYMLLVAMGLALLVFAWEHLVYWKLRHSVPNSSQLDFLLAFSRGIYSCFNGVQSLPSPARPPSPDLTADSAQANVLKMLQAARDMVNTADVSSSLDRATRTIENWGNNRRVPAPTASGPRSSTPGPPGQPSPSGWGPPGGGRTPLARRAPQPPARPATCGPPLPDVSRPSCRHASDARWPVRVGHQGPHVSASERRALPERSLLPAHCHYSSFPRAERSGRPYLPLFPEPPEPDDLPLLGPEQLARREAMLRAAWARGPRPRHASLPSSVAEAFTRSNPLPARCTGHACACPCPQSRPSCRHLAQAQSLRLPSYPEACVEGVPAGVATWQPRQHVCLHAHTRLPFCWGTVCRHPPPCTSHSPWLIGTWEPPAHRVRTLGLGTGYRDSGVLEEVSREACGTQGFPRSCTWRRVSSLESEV

Take `OCCCN1CCC(Cc2ccc(Cl)cc2)CC1` [Ex. 89, 4-(4-Chlorobenzyl)-1-(3-hydroxypropyl) piperidine hydrobromide]: the figures for the IC50 on NR1A/2A NMDA receptor (setting [2]), on NR1A/2B NMDA receptor (setting [3]) and on NR1A/2C NMDA receptor (setting [4]) were 150 µM, 0.3 µM and > 100 µM, respectively. The median effective dose (ED50) in data set [1] (setting [5]) is 5 mg/kg.

Take `CC(O)CCN1CCC(Cc2ccc(Cl)cc2)CC1.Cl` (stereo not shown) [Ex. 99, 4-(4-chlorobenzyl)-1-(3-hydroxybutyl) piperidine hydrochloride]: the melting point lay within 96 to 101 °C. Also, on NR1A/2A NMDA receptor (setting [2]), the IC50 is > 300 µM. Besides, the IC50 on NR1A/2B NMDA receptor (setting [3]) was found to be 1.6 µM. In addition, on NR1A/2C NMDA receptor (setting [4]), the IC50 was > 300 µM. Moreover, the ED50 in data set [1] (setting [5]) was 6 mg/kg.

In turn, `CC(CCO)N1CCC(Cc2ccccc2)CC1` (stereo not shown) [Ex. 84, 4-Benzyl-1-(3-hydroxy-1-methylpropyl)piperidine] registered a melting point of 74 to 76 °C. Also, the IC50 at NR1A/2A NMDA receptor (setting [2]) was found to be 270 µM. Moreover, the IC50 at NR1A/2B NMDA receptor (setting [3]) came out at 6 µM. The IC50 at NR1A/2C NMDA receptor (setting [4]) is > 300 µM.

As to `CC(O)CCN1CCC(Cc2ccccc2)CC1.Cl` (stereo not shown) [Ex. 100, 4-benzyl-1-(3-hydroxy-butyl) piperidine hydrochloride], the melting point is 133 to 135 °C. The IC50 on NR1A/2A NMDA receptor is > 300 µM. The IC50 on NR1A/2B NMDA receptor stood at 3 µM. In addition, the IC50 on NR1A/2C NMDA receptor is > 300 µM. Besides, in data set [1], the 50% effective dose (ED50) was 3.5 mg/kg.

In turn, `CC(C)(O)CCN1CCC(Cc2ccccc2)CC1.Cl` [Ex. 102, 4-benzyl-1-(3-hydroxy-3-methylbutyl) piperidine hydrochloride] had a melting point of 136 to 138 °C. The IC50 at NR1A/2A NMDA receptor is > 300 µM. Besides, the IC50 at NR1A/2B NMDA receptor turned out to be 3.5 µM. The IC50 on NR1A/2C NMDA receptor was > 300 µM.

Take `c1ccc(OCCCN2CCc3c([nH]c4ccccc34)C2)cc1` [Ex. 25, 2-(3-Phenoxypropyl)-1,2,3,4-tetrahydro-9H-pyrido[3,4-b]indole]: the melting point lay within 123 to 124 °C. In addition, the IC50 at NR1A/2A NMDA receptor (setting [2]) amounted to 60 µM. In addition, on NR1A/2B NMDA receptor (setting [3]), the IC50 was 9 µM. In addition, on NR1A/2C NMDA receptor (setting [4]), the IC50 is 175 µM.

Molecule `Oc1ccc(CCNC2=NCC(Cc3ccccc3)CN2)cc1` (stereo not shown) [Ex. 103, 2-[2-(4-Hydroyphenyl)ethylamino]-5-benzyl-1,3-diazacyclohexene] returned a melting point of 153 to 155 °C. For the same molecule, the IC50 at NR1A/2A NMDA receptor (setting [2]) is 3.5 µM. In addition, the IC50 at NR1A/2B NMDA receptor (setting [3]) came to 0.2 µM. At NR1A/2C NMDA receptor (setting [4]), the IC50 worked out at 58 µM.

`OCC(O)CN1CCC(Cc2ccccc2)CC1` (stereo not shown) [Ex. 85, 4-Benzyl-1-(2,3-dihydroxypropyl)piperidine] registered a melting point of 92 to 94 °C. Moreover, the IC50 on NR1A/2A NMDA receptor (setting [2]) is > 300 µM. Moreover, the IC50 on NR1A/2B NMDA receptor (setting [3]) came out at 6 µM. Also, the IC50 at NR1A/2C NMDA receptor (setting [4]) is > 300 µM.

`OCCN1CCC(Cc2ccccc2)CC1` [Ex. 82, 4-Benzyl-1-(2-hydroxyethyl)piperidine] gave a melting point of 62 to 64 °C. Further, at NR1A/2A NMDA receptor (setting [2]), the IC50 turned out to be 290 µM. Further, the IC50 at NR1A/2B NMDA receptor (setting [3]) was 3.3 µM. Moreover, the IC50 at NR1A/2C NMDA receptor (setting [4]) was > 300 µM.

Regarding `OCCCN1CCC(Cc2ccccc2)CC1` [Ex. 83, 4-Benzyl-1-(3-hydroxypropyl)piperidine hydrobromide], the IC50 was 224 µM at NR1A/2A NMDA receptor (setting [2]), 1.8 µM at NR1A/2B NMDA receptor (setting [3]) and > 300 µM at NR1A/2C NMDA receptor (setting [4]). Further, the ED50 in data set [1] was 3.5 mg/kg.

On to `CC(O)CCN1CCC(Cc2ccc(F)cc2)CC1` (stereo not shown) [Ex. 91, 4-(4-Fluorobenzyl)-1-(3-hydroxybutyl) piperidine hydrochloride], for which the figures for the IC50 at NR1A/2A NMDA receptor (setting [2]), at NR1A/2B NMDA receptor (setting [3]) and on NR1A/2C NMDA receptor (setting [4]) were 230 µM, 2.5 µM and > 300 µM, respectively. In addition, in data set [1], the 50% effective dose (ED50) came out at 6 mg/kg.

In turn, `Cc1ccc(CC2CCN(CCC(C)O)CC2)cc1.Cl` (stereo not shown) [Ex. 104, 4-(4-methylbenzyl)-1-(3-hydroxy-butyl) piperidine hydrochloride] showed a melting point of 134 to 136 °C. Further, the IC50 on NR1A/2A NMDA receptor (setting [2]) amounted to 110 µM. Also, the IC50 at NR1A/2B NMDA receptor (setting [3]) was 0.8 µM. Further, at NR1A/2C NMDA receptor (setting [4]), the IC50 is > 300 µM. Also, the ED50 in data set [1] (setting [5]) was 2 mg/kg.

With `COc1ccc(CC2CCN(CCCO)CC2)cc1` [Ex. 93, 1-(3-Hydroxypropyl)-4-(4-methoxybenzyl) piperidine hydrobromide], the figures for the IC50 at NR1A/2A NMDA receptor (setting [2]), on NR1A/2B NMDA receptor (setting [3]) and at NR1A/2C NMDA receptor (setting [4]) were > 300 µM, 9 µM and > 300 µM, respectively. The ED50 in data set [1] amounted to 8 mg/kg.

Values taken from patent publication US6534522B2, “Subtype-selective NMDA receptor ligands and the use thereof” (Warner-Lambert Company, priority 1995, dated 2003).
